Tests used:
human malaria parasites [1] = test: [3H]-hypoxanthine incorporation (de novo nucleic acid synthesis) in infected human red blood cells, Example 2; assay type: cell-based; conditions: for specific radioactivity incorporation, [^3H]-hypoxanthine: 25 hours, value at 0.1 μM set to 100%
Procedure: Human red blood cells infected at an infection rate of 2% with ring-stage human malaria parasites were cultured in RPMI1640 medium containing AlbuMAX-II at 37° C. and a hematocrit of 4%. 50 μL of a medium containing Alaremycin or any of the other compounds shown in Table 2 was mixed with 50 μL of the culture to the indicated concentrations, to which [^3H]-hypoxanthine was then added, followed by culture in a 96-well plate at 37° C. The repeat number was 2 for each concentration. After 25 hours, they were examined and the amount β-rays released from [^3H]-hypoxanthine incorporated into a nucleic acid with de novo nucleic acid synthesis was measured using a scintillation counter. The averages of the measured values were calculated, and the specific radioactivity incorporation was calculated by setting the measured value in the experiment for which each compound is contained at a final concentration of 0.1 μM, to 100%.

human malaria parasites [2] = test: [3H]-hypoxanthine incorporation (de novo nucleic acid synthesis) in infected human red blood cells, Example 1; assay type: cell-based; conditions: for Specific Radioactivity Incorporation (%) [^3H]-Hypoxanthine: 25 hours, value at 0.01 μM set to 100%
Procedure: (§1) Human red blood cells infected at an infection rate of 2% with ring-stage human malaria parasites were cultured in RPMI1640 medium containing AlbuMAX-II (Invitrogen) at 37° C. and a hematocrit of 4%. 50 μL of the culture was mixed with 50 μL of a medium containing Alaremycin to the concentrations shown in Table 1, to which [^3H]-hypoxanthine and [^14C]-isoleucine isoleucine were then added, followed by culture in a 96-well plate at 37° C. The repeat number was 2 for each concentration. After 25 hours, they were examined and the amount of (3-rays released from [^3H]-hypoxanthine incorporated into a nucleic acid with de novo nucleic acid synthesis or from [^14C]-isoleucine incorporated into a protein with de novo protein synthesis was measured using a scintillation counter. The averages of the measured values were calculated, and the specific radioactivity incorporation was calculated by setting the measured value in the experiment for which Alaremycin was contained at a final concentration of 0.01 μM, to 100%. The results are shown in Table 1.

human malaria parasites [3] = test: [14C]-isoleucine incorporation (de novo protein synthesis) in infected human red blood cells, Example 1; assay type: cell-based; conditions: 25 hours, value at 0.01 μM set to 100%
Procedure: as §1

[4] = molecular target: porphobilinogen synthase (PBGS) (Pseudomonas aeruginosa, UniProt Q59643); conditions: Non-patent Document 3; cited from earlier work
Escherichia coli = conditions: Non-patent Documents 2, 3; cited from earlier work
Pseudomonas aeruginosa = conditions: Non-patent Document 3; cited from earlier work

Chain of porphobilinogen synthase (PBGS) (Q59643 whole entry): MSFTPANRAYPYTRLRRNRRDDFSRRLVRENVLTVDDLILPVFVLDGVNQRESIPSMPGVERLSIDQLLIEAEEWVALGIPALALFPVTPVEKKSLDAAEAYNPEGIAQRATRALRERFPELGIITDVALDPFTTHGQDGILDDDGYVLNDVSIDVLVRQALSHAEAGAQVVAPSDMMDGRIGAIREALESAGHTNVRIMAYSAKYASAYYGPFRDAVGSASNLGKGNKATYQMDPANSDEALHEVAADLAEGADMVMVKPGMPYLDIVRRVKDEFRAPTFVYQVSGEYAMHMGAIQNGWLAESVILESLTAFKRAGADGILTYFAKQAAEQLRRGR

For `O=C(O)CCC(=O)CCC(=O)CCC(=O)O` [4,7-Dioxosebacic acid, 4,7-dioxosebacic acid], the “specific radioactivity incorporation, [^3H]-hypoxanthine” value (human malaria parasites [1]; 0.1 μM) was 100%, the “specific radioactivity incorporation, [^3H]-hypoxanthine” value (human malaria parasites [1]; 1 μM) was 110.3% and the “specific radioactivity incorporation, [^3H]-hypoxanthine” value (human malaria parasites [1]; 5 μM) was 106.9%. The “specific radioactivity incorporation, [^3H]-hypoxanthine” value (human malaria parasites [1]; 10 μM) was 103.4%, the “specific radioactivity incorporation, [^3H]-hypoxanthine” value (human malaria parasites [1]; 50 μM) was 108% and the “specific radioactivity incorporation, [^3H]-hypoxanthine” value (human malaria parasites [1]; 100 μM) was 102.1%. The “specific radioactivity incorporation, [^3H]-hypoxanthine” value (human malaria parasites [1]; 500 μM) was 106.8%, the “specific radioactivity incorporation, [^3H]-hypoxanthine” value (human malaria parasites [1]; 1000 μM) was 100.1% and the “specific radioactivity incorporation, [^3H]-hypoxanthine” value (human malaria parasites [1]; 5000 μM) was 100%. The “specific radioactivity incorporation, [^3H]-hypoxanthine” value (human malaria parasites [1]; 10000 μM) was 97.1%.
In the case of `NCC(=O)CCC(=O)O` [5-Aminolevulinic acid, 5-aminolevulinic acid], the “specific radioactivity incorporation, [^3H]-hypoxanthine” value (human malaria parasites [1]; 0.1 μM) is reported as 100%, the “specific radioactivity incorporation, [^3H]-hypoxanthine” value (human malaria parasites [1]; 1 μM) is reported as 102.7% and the “specific radioactivity incorporation, [^3H]-hypoxanthine” value (human malaria parasites [1]; 5 μM) is reported as 108.5%. For the same compound, the “specific radioactivity incorporation, [^3H]-hypoxanthine” value (human malaria parasites [1]; 10 μM) was 104.4%, the “specific radioactivity incorporation, [^3H]-hypoxanthine” value (human malaria parasites [1]; 50 μM) was 97.3% and the “specific radioactivity incorporation, [^3H]-hypoxanthine” value (human malaria parasites [1]; 100 μM) was 101.2%.
For `C=C(NC(C)=O)C(=O)CCC(=O)O` [Alaremycin, 5-acetamido-4-oxo-5-hexenoic acid], the “Specific Radioactivity Incorporation (%) [^3H]-Hypoxanthine” value (human malaria parasites [2]; 0.01 μM) was 100%, the “Specific Radioactivity Incorporation (%) [^3H]-Hypoxanthine” value (human malaria parasites [2]; 0.1 μM) was 100.4% and the “Specific Radioactivity Incorporation (%) [^3H]-Hypoxanthine” value (human malaria parasites [2]; 1 μM) was 92.8%. For the same compound, the “Specific Radioactivity Incorporation (%) [^3H]-Hypoxanthine” value (human malaria parasites [2]; 5 μM) was 84.8%, the “Specific Radioactivity Incorporation (%) [^3H]-Hypoxanthine” value (human malaria parasites [2]; 10 μM) was 66.8% and the “Specific Radioactivity Incorporation (%) [^3H]-Hypoxanthine” value (human malaria parasites [2]; 50 μM) was 2.8%. The “Specific Radioactivity Incorporation (%) [^3H]-Hypoxanthine” value (human malaria parasites [2]; 100 μM) was 1.5%, the “Specific Radioactivity Incorporation (%) [^3H]-Hypoxanthine” value (human malaria parasites [2]; 200 μM) was 1.1% and the inhibition at 15 µM (human malaria parasites [2]; Homo sapiens, Erythrocyte, 15 μM, rough statement for both [^3H]-hypoxanthine and [^14C]-isoleucine, read-out: inhibition of radioactivity incorporation) was ~50%. For the same compound, the inhibition at 50 µM (human malaria parasites [2]; Homo sapiens, Erythrocyte, 50 μM, rough statement for both [^3H]-hypoxanthine and [^14C]-isoleucine, read-out: inhibition of radioactivity incorporation) was ≥ 95%, the “inhibition of nucleic acid metabolism and protein synthesis in human malaria parasites (in words)” value (human malaria parasites [2]; measured as in Example 1, both nucleic acid and protein synthesis) was “inhibited by Alaremycin in a concentration-dependent manner” and the “Specific Radioactivity Incorporation (%) [^14C]-Isoleucine” value (human malaria parasites [3]; 0.01 μM) was 100%. The “Specific Radioactivity Incorporation (%) [^14C]-Isoleucine” value (human malaria parasites [3]; 0.1 μM) was 93.3%, the “Specific Radioactivity Incorporation (%) [^14C]-Isoleucine” value (human malaria parasites [3]; 1 μM) was 88.8% and the “Specific Radioactivity Incorporation (%) [^14C]-Isoleucine” value (human malaria parasites [3]; 5 μM) was 84.7%. For the same compound, the “Specific Radioactivity Incorporation (%) [^14C]-Isoleucine” value (human malaria parasites [3]; 10 μM) was 64.8%, the “Specific Radioactivity Incorporation (%) [^14C]-Isoleucine” value (human malaria parasites [3]; 50 μM) was 3.6% and the “Specific Radioactivity Incorporation (%) [^14C]-Isoleucine” value (human malaria parasites [3]; 100 μM) was 2.1%. The “Specific Radioactivity Incorporation (%) [^14C]-Isoleucine” value (human malaria parasites [3]; 200 μM) was 1%, the “specific radioactivity incorporation, [^3H]-hypoxanthine” value (human malaria parasites [1]; 0.1 μM) was 100% and the “specific radioactivity incorporation, [^3H]-hypoxanthine” value (human malaria parasites [1]; 1 μM) was 100.5%. The “specific radioactivity incorporation, [^3H]-hypoxanthine” value (human malaria parasites [1]; 5 μM) was 90.7%, the “specific radioactivity incorporation, [^3H]-hypoxanthine” value (human malaria parasites [1]; 10 μM) was 83.8% and the “specific radioactivity incorporation, [^3H]-hypoxanthine” value (human malaria parasites [1]; 50 μM) was 2.8%. The “specific radioactivity incorporation, [^3H]-hypoxanthine” value (human malaria parasites [1]; 100 μM) was 1.6%, the “inhibition of nucleic acid metabolism in human malaria parasites (in words)” value (human malaria parasites [1]; compared to succinylacetone and 4,7-dioxosebacic acid) was “sufficiently inhibit nucleic acid metabolism in human malaria parasites in a significantly low concentration” and the “inhibition of porphobilinogen synthase (in words)” value [4] was “act as an inhibitor of porphobilinogen synthase (PBGS)”. For the same compound, the “antibacterial activity (in words)” value (Escherichia coli) was “has antibacterial activities” and the “antibacterial activity (in words)” value (Pseudomonas aeruginosa) was “has antibacterial activities”.
For `CC(=O)CC(=O)CCC(=O)O` [Succinylacetone, 4,6-dioxoheptanoic acid], the “specific radioactivity incorporation, [^3H]-hypoxanthine” value (human malaria parasites [1]; 0.1 μM) was 100%, the “specific radioactivity incorporation, [^3H]-hypoxanthine” value (human malaria parasites [1]; 1 μM) was 94.4% and the “specific radioactivity incorporation, [^3H]-hypoxanthine” value (human malaria parasites [1]; 5 μM) was 94.3%. The “specific radioactivity incorporation, [^3H]-hypoxanthine” value (human malaria parasites [1]; 10 μM) was 94.7%, the “specific radioactivity incorporation, [^3H]-hypoxanthine” value (human malaria parasites [1]; 50 μM) was 99.8% and the “specific radioactivity incorporation, [^3H]-hypoxanthine” value (human malaria parasites [1]; 100 μM) was 90.9%. The “specific radioactivity incorporation, [^3H]-hypoxanthine” value (human malaria parasites [1]; 500 μM) was 94.4%, the “specific radioactivity incorporation, [^3H]-hypoxanthine” value (human malaria parasites [1]; 1000 μM) was 88.6% and the “specific radioactivity incorporation, [^3H]-hypoxanthine” value (human malaria parasites [1]; 5000 μM) was 58.8%. For the same compound, the “specific radioactivity incorporation, [^3H]-hypoxanthine” value (human malaria parasites [1]; 10000 μM) was 21.4%.

From patent publication US20130217913A1, “Antimalarial Drug Comprising Alaremycin or Derivative Thereof as Active Ingredient” (SBI Pharmaceuticals Co., Ltd., priority 2010, published 2013)
